In brackets after ≈: the same amount, converted by molar mass. Activity calls are given as the source filed them. The calls are words filed in the database; no cut-off is given here.
Columns and labels:
Candida albicans [1] = assay: Fungicidal activity against Candida albicans MTCC 227 incubated for 24 hrs; assay type: functional; settings: MTCC 227, 24 h
[Candida] aaseri [2] = Antifungal activity against Candida aaseri MTCC 1962 incubated for 24 hrs at 30 degC by well diffusion method; assay type: functional; settings: Yamadazyma aaseri, MTCC 1962, 24 h
Candida parapsilosis [3] = assay: Fungicidal activity against Candida parapsilosis MTCC 1744 incubated for 24 hrs; assay type: functional; settings: Lodderomyces parapsilosis, MTCC 1744, 24 h
Pichia kudriavzevii [4] = assay: Antifungal activity against Candida krusei MTCC 3020 incubated for 24 hrs at 30 degC by well diffusion method; assay type: functional; settings: MTCC 3020, 24 h
[Candida] aaseri [5] = Fungicidal activity against Candida aaseri MTCC 1962 incubated for 24 hrs; assay type: functional; settings: Yamadazyma aaseri, MTCC 1962, 24 h
Candida albicans [6] = assay: Antifungal activity against Candida albicans MTCC 1637 incubated for 24 hrs at 30 degC by well diffusion method; assay type: functional; settings: MTCC 1637, 24 h
Nakaseomyces glabratus [7] = assay: Fungicidal activity against Candida glabrata MTCC 3019 incubated for 24 hrs; assay type: functional; settings: MTCC 3019, 24 h
Pichia sporocuriosa [8] = assay: Fungicidal activity against Issatchenkia hanoiensis MTCC 4755 incubated for 24 hrs; assay type: functional; settings: MTCC 4755, 24 h
Candida albicans [9] = assay: Antifungal activity against Candida albicans MTCC 227 incubated for 24 hrs at 30 degC by well diffusion method; assay type: functional; settings: MTCC 227, 24 h
Candida albicans [10] = assay: Antifungal activity against Candida albicans MTCC 854 incubated for 24 hrs at 30 degC by well diffusion method; assay type: functional; settings: MTCC 854, 24 h
Candida albicans [11] = assay: Antifungal activity against Candida albicans MTCC 3958 incubated for 24 hrs at 30 degC by well diffusion method; assay type: functional; settings: MTCC 3958, 24 h
Candida albicans [12] = assay: Fungicidal activity against Candida albicans MTCC 7315 incubated for 24 hrs; assay type: functional; settings: MTCC 7315, 24 h
Candida albicans [13] = assay: Fungicidal activity against Candida albicans MTCC 854 incubated for 24 hrs; assay type: functional; settings: MTCC 854, 24 h
Candida albicans [14] = assay: Fungicidal activity against Candida albicans MTCC 3017 incubated for 24 hrs; assay type: functional; settings: MTCC 3017, 24 h
Candida parapsilosis [15] = assay: Antifungal activity against Candida parapsilosis MTCC 1744 incubated for 24 hrs at 30 degC by well diffusion method; assay type: functional; settings: Lodderomyces parapsilosis, MTCC 1744, 24 h
Candida albicans [16] = assay: Fungicidal activity against Candida albicans MTCC 4748 incubated for 24 hrs; assay type: functional; settings: MTCC 4748, 24 h
Pichia kudriavzevii [17] = assay: Fungicidal activity against Candida krusei MTCC 3020 incubated for 24 hrs; assay type: functional; settings: MTCC 3020, 24 h
Candida albicans [18] = assay: Antifungal activity against Candida albicans MTCC 4748 incubated for 24 hrs at 30 degC by well diffusion method; assay type: functional; settings: MTCC 4748, 24 h
Candida albicans [19] = assay: Fungicidal activity against Candida albicans MTCC 3958 incubated for 24 hrs; assay type: functional; settings: MTCC 3958, 24 h
Candida albicans [20] = assay: Antifungal activity against Candida albicans MTCC 7315 incubated for 24 hrs at 30 degC by well diffusion method; assay type: functional; settings: MTCC 7315, 24 h
Candida albicans [21] = assay: Antifungal activity against Candida albicans MTCC 3017 incubated for 24 hrs at 30 degC by well diffusion method; assay type: functional; settings: MTCC 3017, 24 h
Nakaseomyces glabratus [22] = assay: Antifungal activity against Candida glabrata MTCC 3019 incubated for 24 hrs at 30 degC by well diffusion method; assay type: functional; settings: MTCC 3019, 24 h
Candida albicans [23] = assay: Fungicidal activity against Candida albicans MTCC 183 incubated for 24 hrs; assay type: functional; settings: MTCC 183, 24 h
Candida albicans [24] = assay: Fungicidal activity against Candida albicans MTCC 1637 incubated for 24 hrs; assay type: functional; settings: MTCC 1637, 24 h
Candida albicans [25] = assay: Antifungal activity against Candida albicans MTCC 3018 incubated for 24 hrs at 30 degC by well diffusion method; assay type: functional; settings: MTCC 3018, 24 h
Candida albicans [26] = assay: Antifungal activity against Candida albicans MTCC 183 incubated for 24 hrs at 30 degC by well diffusion method; assay type: functional; settings: MTCC 183, 24 h
Pichia sporocuriosa [27] = assay: Antifungal activity against Issatchenkia hanoiensis MTCC 4755 incubated for 24 hrs at 30 degC by well diffusion method; assay type: functional; settings: MTCC 4755, 24 h
Candida albicans [28] = assay: Fungicidal activity against Candida albicans MTCC 3018 incubated for 24 hrs; assay type: functional; settings: MTCC 3018, 24 h
Candida albicans [29] = assay: Induction of ROS accumulation in Candida albicans MTCC 227 sessile cells at 2 to 8 ug/ml incubated for 24 hrs by DCFH-DA dye based microplate reader analysis; assay type: functional, organism-based
Escherichia coli [30] = assay: Bactericidal activity against Escherichia coli MTCC 739 incubated for 24 hrs; assay type: functional; settings: MTCC 739, 24 h
Bacillus subtilis [31] = assay: Bactericidal activity against Bacillus subtilis MTCC 121 incubated for 24 hrs; assay type: functional; settings: MTCC 121, 24 h
Staphylococcus aureus [32] = assay: Bactericidal activity against Staphylococcus aureus MTCC 96 incubated for 24 hrs; assay type: functional; settings: MTCC 96, 24 h
Raoultella planticola [33] = assay: Antibacterial activity against Klebsiella planticola MTCC 530 incubated for 24 hrs at 37 degC by well diffusion method; assay type: functional; settings: MTCC 530, 24 h
Staphylococcus aureus [34] = assay: Bactericidal activity against Staphylococcus aureus MLS16 MTCC 2940 incubated for 24 hrs; assay type: functional; settings: MLS16 MTCC 2940, 24 h
Staphylococcus aureus [35] = assay: Antibacterial activity against Staphylococcus aureus MTCC 96 incubated for 24 hrs at 37 degC by well diffusion method; assay type: functional; settings: MTCC 96, 24 h
Raoultella planticola [36] = assay: Bactericidal activity against Klebsiella planticola MTCC 530 incubated for 24 hrs; assay type: functional; settings: MTCC 530, 24 h
Escherichia coli [37] = assay: Antibacterial activity against Escherichia coli MTCC 739 incubated for 24 hrs at 37 degC by well diffusion method; assay type: functional; settings: MTCC 739, 24 h
Staphylococcus aureus [38] = assay: Antibacterial activity against Staphylococcus aureus MLS16 MTCC 2940 incubated for 24 hrs at 37 degC by well diffusion method; assay type: functional; settings: MLS16 MTCC 2940, 24 h
Micrococcus luteus [39] = assay: Antibacterial activity against Micrococcus luteus MTCC 2470 incubated for 24 hrs at 37 degC by well diffusion method; assay type: functional; settings: MTCC 2470, 24 h
Pseudomonas aeruginosa = assay: Antibacterial activity against Pseudomonas aeruginosa MTCC 2453 incubated for 24 hrs at 37 degC by well diffusion method; assay type: functional; settings: MTCC 2453, 24 h
Bacillus subtilis [40] = assay: Antibacterial activity against Bacillus subtilis MTCC 121 incubated for 24 hrs at 37 degC by well diffusion method; assay type: functional; settings: MTCC 121, 24 h
Micrococcus luteus [41] = assay: Bactericidal activity against Micrococcus luteus MTCC 2470 incubated for 24 hrs; assay type: functional; settings: MTCC 2470, 24 h

Clc1ccc(COC(Cn2ccnc2)c2ccc(Cl)cc2Cl)c(Cl)c1 (configuration not stated) [MICONAZOLE]
MFC (Candida albicans [1]): 15.6 µg/mL (≈ 37.5 µM)
MIC ([Candida] aaseri [2]): 7.8 µg/mL (≈ 18.7 µM)
MFC (Candida parapsilosis [3]): 7.8 µg/mL (≈ 18.7 µM)
MIC (Pichia kudriavzevii [4]): 7.8 µg/mL (≈ 18.7 µM)
MFC ([Candida] aaseri [5]): 7.8 µg/mL (≈ 18.7 µM)
MIC (Candida albicans [6]): 7.8 µg/mL (≈ 18.7 µM)
MFC (Nakaseomyces glabratus [7]): 15.6 µg/mL (≈ 37.5 µM)
MFC (Pichia sporocuriosa [8]): 7.8 µg/mL (≈ 18.7 µM)
MIC (Candida albicans [9]): 7.8 µg/mL (≈ 18.7 µM)
MIC (Candida albicans [10]): 7.8 µg/mL (≈ 18.7 µM)
MIC (Candida albicans [11]): 7.8 µg/mL (≈ 18.7 µM)
MFC (Candida albicans [12]): 7.8 µg/mL (≈ 18.7 µM)
MFC (Candida albicans [13]): 15.6 µg/mL (≈ 37.5 µM)
MFC (Candida albicans [14]): 7.8 µg/mL (≈ 18.7 µM)
MIC (Candida parapsilosis [15]): 7.8 µg/mL (≈ 18.7 µM)
MFC (Candida albicans [16]): 7.8 µg/mL (≈ 18.7 µM)
MFC (Pichia kudriavzevii [17]): 7.8 µg/mL (≈ 18.7 µM)
MIC (Candida albicans [18]): 7.8 µg/mL (≈ 18.7 µM)
MFC (Candida albicans [19]): 15.6 µg/mL (≈ 37.5 µM)
MIC (Candida albicans [20]): 7.8 µg/mL (≈ 18.7 µM)
MIC (Candida albicans [21]): 7.8 µg/mL (≈ 18.7 µM)
MIC (Nakaseomyces glabratus [22]): 7.8 µg/mL (≈ 18.7 µM)
MFC (Candida albicans [23]): 7.8 µg/mL (≈ 18.7 µM)
MFC (Candida albicans [24]): 15.6 µg/mL (≈ 37.5 µM)
MIC (Candida albicans [25]): 7.8 µg/mL (≈ 18.7 µM)
MIC (Candida albicans [26]): 7.8 µg/mL (≈ 18.7 µM)
MIC (Pichia sporocuriosa [27]): 7.8 µg/mL (≈ 18.7 µM)
MFC (Candida albicans [28]): 7.8 µg/mL (≈ 18.7 µM)
Activity (Candida albicans [29]): Active

CCCCCCCCC[C@@H](O)[C@H](CO)n1cc(CCCCCC)nn1
MBC (Escherichia coli [30]): > 250 µg/mL
MBC (Bacillus subtilis [31]): 15.6 µg/mL (≈ 44.1 µM)
MBC (Staphylococcus aureus [32]): 3.9 µg/mL (≈ 11 µM)
MIC (Raoultella planticola [33]): > 250 µg/mL
MBC (Staphylococcus aureus [34]): > 250 µg/mL
MIC (Staphylococcus aureus [35]): 3.9 µg/mL (≈ 11 µM)
MBC (Raoultella planticola [36]): > 250 µg/mL
MIC (Escherichia coli [37]): > 250 µg/mL
MIC (Staphylococcus aureus [38]): > 250 µg/mL
MIC (Micrococcus luteus [39]): 7.8 µg/mL (≈ 22.1 µM)
MIC (Pseudomonas aeruginosa): > 250 µg/mL
MIC (Bacillus subtilis [40]): 7.8 µg/mL (≈ 22.1 µM)
MBC (Micrococcus luteus [41]): 15.6 µg/mL (≈ 44.1 µM)

Reference: ChEMBL document CHEMBL3822398, “Design, synthesis and in vitro biological evaluation of short-chain C12-sphinganine and its 1,2,3-triazole analogs as potential antimicrobial and anti-biofilm agents” (Eur J Med Chem, 2016)
